Here are results for ten molecules from patent US20140256793A1, “MEDICAMENT FOR DISEASES ASSOCIATED WITH AMYLOID beta AND SCREENING THEREOF” (National University Corporation Hokkaido University, priority 2011, published 2014).

Data set [1] concerns N2a cells. The data set can be described thus: Measurement of exosome release from N2a cells after siRNA, C6-ceramide or bacterial SMase treatment (Western blot). In kind it is cell-based, murine. Particulars: for exosome release / secretion after siRNA knockdown: Stealth RNAi siRNA, Western blot of exosome markers; for ratio of amount of Alix compared with a control: siRNA knockdown, exosome fraction. How it is done: (§1) As previously described (Thery C et al., Curr Protoc Cell Biol Chapter: Unit 3.22 (2006)), exosomes were prepared from culture supernatants of N2a and murine primary cultured cortical nerve cells. The culture medium was replaced with a serum-free medium on the day before the preparation of exosomes. The cell culture supernatants were collected after 24 hours and sequentially centrifuged at 3,000×g for 10 minutes, at 4,000×g for 10 minutes, and at 10,000×g for 30 minutes to remove cells, dead cells, and cell fragments, and then spun down again at 100,000×g for one hour to obtain exosomes as pellets.
(§2) Treatment with imipramine (10 μM), GW4869 (10 μM), D609 (50 μM) C6-ceramide (50 μM) or bacterial SMase (100 μU/ml) was performed for 24 hours in a serum-free medium.
For RNA-mediated interference (RNAi) experiments, the inventors used Stealth RNAi™ siRNA (Invitrogen) with the following sequences:
Stealth™ Control RNA was obtained from Invitrogen SiRNA was delivered according to the manufacturer's protocol by using a Lipofectamine™ transfection reagent (Invitrogen).
(§3) Exosome pellets purified from cultures of 5×10^6 cells were solubilized with Laemmli buffer (Laemmli U K, Nature (1970) 227: 680-685) and subjected to SDS-PAGE and Western blotting. Blots were probed with a primary antibody and then probed with an HRP-conjugated secondary antibody. Bands were detected and analyzed using a combination of an ECL Plus kit (GE Healthcare) and an LAS4000 (Fujifilm Corporation).
Background: A western blot detects proteins with antibodies after separation by electrophoresis.

Data set [2] deals with N2a cells and primary cultured nerve cells. The data set can be described thus: Measurement of exosome release after drug treatment (Western blot of Alix, Tsg101, GM1 in 100,000×g pellets). Particulars: 24 hours in serum-free medium; imipramine 10 μM, GW4869 10 μM, D609 50 μM. In kind it is cell-based, murine. On the procedure:
as §1, §2, §3

The test system of data set [3] is Aβ. The data set can be described thus: Thioflavin T test of Aβ amyloid fibril formation with exosomes. In kind it is biochemical, human. Particulars: exosomes from inhibitor- or siRNA-treated cells mixed with 25 μM Aβ42, five hours at 37° C. On the procedure: A seed-free Aβ solution was prepared essentially according to the previous report (Naiki H et al., Methods Enzymol (1999) 309: 305-318). Briefly stated, synthetic Aβ40 and Aβ42 were dissolved in a 0.02% ammonium solution at 500 μM and 300 μM, respectively. In order to remove undissolved Aβ aggregates that can act as pre-existing seeds, the prepared solution was centrifuged at 540,000×g for three hours at 4° C. The obtained supernatant was collected and stored at −80° C. until use.
Seed free Aβ (25 μM) was incubated in 100 μl of TBS comprising 0 μl, 1 μl, or 10 μl of exosome solution at 37° C. 1 μl of exosome solution was collected from culture supernatants of 1×10^6 cells. As described in the prior art document (Naiki H et al., Methods Enzymol (1999)309:305-318), fluorescence intensity of ThT in the mixture was measured using an Appliskan spectrofluorophotometer (Thermo Fisher Scientific). The optimal fluorescence intensities of amyloid fibrils were measured at an excitation wavelength of 446 nm and fluorescent wavelength of 490 nm by using a reaction mixture comprising 5 μM ThT and 50 mM glycine/NaOH with pH of 8.5.

The test system of data set [4] is BV-2 cells or primary cultured microglia. In words: Fluorescence staining and internalization assay of PKH26-labeled exosomes. In kind it is cell-based, murine.
Data set [5] has the same test system. The data set can be described thus: Aβ42 uptake into microglia (ELISA). In kind it is cell-based, murine.
Data set [6] concerns N2a cells and BV-2 cells. In words: Transwell experiment: N2a-APP cells with BV-2 cells, Aβ levels by ELISA. In kind it is cell-based, murine. Particulars: for extracellular Aβ levels: no BV-2 cells on the lower wells, N2a-APP cells treated with siRNA. On the procedure:
Aβ40 and Aβ42 levels were measured by using a sandwich enzyme-linked immunosorbent assay (ELISA) kit from Wako. Aggregated Aβs both in medium and cells were solubilized with 4 M guanidine-HCl buffer for 2 hours at room temperature and then were subjected to ELISA. All samples were measured in duplicates.
(§4) N2a cells were cultured on 24-well plate inserts (0.5 μm pore, Costar) at 5×10^5 cells/cm^2 and then transfected with the APP770 plasmid simultaneously with siRNA for nSMase2 or SMS2 by using a Lipofectamine-2000. After 24 hours from the transfection, inserts were placed onto wells containing BV-2 cells. After an additional 24 hours of incubation, Aβ levels in the medium were measured by ELISA. Intracellular Aβ levels in BV-2 cells were also measured using ELISA after solubilization in guanidine HCl buffer as described above.
For orientation: ELISA stands for enzyme-linked immunosorbent assay.

Data set [7] concerns N2a-APP cells. In words: Western blot of 100,000×g pellets from media of N2a-APP cells transfected with siRNA. Type of data set: cell-based, murine. The following applies: for levels of released exosomes, estimated by the amounts of Alix and Tsg101: siRNA knockdown. How it is done:
as §3, §4

Setting [8] is: in the presence of BV-2 cells in the lower wells, 24 hours.

Take `CCCCCCCCCCCCC/C=C/[C@@H](O)[C@H](CO)NC(=O)CCCCC` [C6-ceramide, N-hexanoyl-D-erythro-sphingosine]: in data set [1] (C6-ceramide 50 μM or bacterial SMase 100 μU/ml, 24 hours), the “release levels of exosomes” value is given as “significantly increased”.

On to `S=C([S-])OC1CC2CC1C1CCCC21.[K+]` (stereo not shown) [D609], for which the “levels of released exosomes (exosomal markers Alix, Tsg101, GM1 in 100,000×g pellets)” value in data set [2] was “significant enhancement”. For the same molecule, the “Aβ fibrillogenesis (ThT fluorescence) by exosomes purified from treated cultures, compared with controls” value (shortened to “Aβ fibrillogenesis … compared with controls”) in data set [3] was “increased”.

With `O=C(/C=C/c1ccc(/C=C/C(=O)Nc2ccc(C3=NCCN3)cc2)cc1)Nc1ccc(C2=NCCN2)cc1` [GW4869], in data set [2], the “levels of released exosomes (exosomal markers Alix, Tsg101, GM1 in 100,000×g pellets)” value was “significantly decreased”. In data set [3], the “Aβ fibrillogenesis … compared with controls” value is “significantly reduced”.

For the molecule `CN(C)CCCN1c2ccccc2CCc2ccccc21` [imipramine], the “levels of released exosomes (exosomal markers Alix, Tsg101, GM1 in 100,000×g pellets)” value in data set [2] is “did not change”.

Take “AV: annexin V, specifically recognizes phosphatidylserine (PS)”: in data set [4], the “uptake of exosomes into BV-2 cells or primary cultured microglia” value was “significantly suppressed”. Besides, the “Aβ uptake into microglia” value in data set [5] was “significantly suppressed”.

Regarding “SMS1 siRNA: Stealth RNAi siRNA (Invitrogen) for SMS1, sense 5′-AUACAUUGUAAUACACCGAUACAGG-3′ (antisense CCUGUAUCGGUGUAUUACAAUGUAU; Commercial Stealth RNAi siRNA, modifications not given here)”, in data set [1], the “exosome release / secretion after siRNA knockdown” value (“exosome release / secretion” for short) is on record as “significant increases” and the “ratio of amount of Alix compared with a control” value is given as 186.02±9.77%.

As for “SMS2 siRNA: Stealth RNAi siRNA (Invitrogen) for SMS2, sense 5′-AUACAUAGUUAUACAGCGAUACAGG-3′ (antisense CCUGUAUCGCUGUAUAACUAUGUAU; commercial Stealth RNAi siRNA, chemistry not given here)”, in data set [1], the “exosome release / secretion” value is recorded as “significant increases” and the “ratio of amount of Alix compared with a control” value was found to be 424.75±45.96%. The “Aβ fibrillogenesis … compared with controls” value in data set [3] was “increased”. Also, the “Aβ levels in the BV-2 cells” value in data set [6] (compared with treatment with control RNA) is “significantly increased”. For the same molecule, in data set [6] (setting [8]), the “level of Aβ40 in the culture media” value is listed as “significantly decreased” and the “level of Aβ42 in the culture media” value is given as “significantly decreased”. In addition, the “extracellular Aβ levels” value in data set [6] is reported as “unchanged”. Besides, the “Aβ in 100,000×g pellets” value in data set [7] (Western blotting) is on record as “detected”. In data set [7], the “levels of released exosomes, estimated by the amounts of Alix and Tsg101” value was “obviously modulated”.

For “aSMase siRNA: Stealth RNAi siRNA (Invitrogen) for aSMase, sense 5′-AUUGGUUUCCCUUUAUGAAGGGAGG-3′ (antisense CCUCCCUUCAUAAAGGGAAACCAAU; Commercial Stealth RNAi siRNA, modifications not given here)”, the “exosome release / secretion” value in data set [1] is reported as “did not change”.

On to “nSMase1 siRNA: Stealth RNAi siRNA (Invitrogen) for nSMase1, sense 5′-AAUAGAACCACAUCUGCAUUCUUGG-3′ (antisense CCAAGAAUGCAGAUGUGGUUCUAUU; Commercial Stealth RNAi siRNA, modifications not given here)”, for which, in data set [1], the “exosome release / secretion” value is reported as “did not change”.

Take “nSMase2 siRNA: Stealth RNAi siRNA (Invitrogen) for nSMase2, sense 5′-AAUCGAUGUAGAUCUUGAUCUGAGG-3′ (antisense CCUCAGAUCAAGAUCUACAUCGAUU; commercial Stealth RNAi siRNA, chemistry not given here)”: the “exosome release / secretion” value in data set [1] is recorded as “reduced”. The “Aβ fibrillogenesis … compared with controls” value in data set [3] was “significantly reduced”. The “extracellular Aβ levels” value in data set [6] is given as “unchanged”. Moreover, the “levels of released exosomes, estimated by the amounts of Alix and Tsg101” value in data set [7] is listed as “obviously modulated”.
